Like-named read-outs stand apart in the source and are kept apart here.
Columns and labels:
[1] = single 200 mg oral dose, cited from earlier work
[2] = Particle size distribution (PSD) measurement by laser light diffractometry, Malvern Mastersizer 2000; assay type: physicochemical; conditions: starting powder before wet-medium-milling
Experimental: In this document, any particle size characteristic of the wet-media-milled progesterone particles is determined using laser light diffractometry and is based on a volume weighted particle size distribution, unless specifically indicated otherwise. […] As will be understood by those skilled in the art, the term "Dv50" as used herein refers to the point in the size distribution, up to and including which, 50% of the total volume of material in the sample is 'contained'. […] Particle size distribution ('PSD') characteristics are determined using a Malvern® Mastersizer 2000 apparatus equipped with a Hydro 2000 SM wet sample dispersion unit, operated with the settings summarized in table 1. Table 1 - PSD measurement settings [table]

## CC(=O)[C@H]1CC[C@H]2[C@@H]3CCC4=CC(=O)CC[C@]4(C)[C@H]3CC[C@]12C [progesterone, pregn-4-ene-3,20-dione]
[1]; as a consequence of micronization
  peak levels of progesterone compared to plain milled progesterone: 1.4 fold
[1]; as a consequence of the suspension in oil
  peak levels of progesterone compared to plain milled progesterone: 1.2 fold
[1]; combination of micronization and the suspension in oil
  peak levels of progesterone compared to plain milled progesterone: 3.2 fold
[2]
  Dv10: 4.7
  Dv50: 38.4
  Dv90: 74.6

— patent EP4389117A1, “PROGESTERONE FORMULATION” (Besins Healthcare Distribution FZ-LLC, priority 2022, dated 2024)
